{
  "source": "patent US4471131A",
  "about": "“Novel silyl esters of N-phosphonomethylglycine” (Monsanto Company, priority 1983, dated 1984)",
  "assay_in_all_cases": "post-emergence herbicidal activity, greenhouse",
  "format_in_all_cases": "in vivo",
  "key": {"[1]": {"test_system": "Canada Thistle", "settings": "Table II, formulated immediately prior to treatment", "how_it_was_run": "(§1)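 Plants grown two to three weeks in greenhouse soil pans were atomizer-sprayed with test chemical in spray containing about 0.4% emulsifier, at the listed rates. Injury relative to unsprayed controls observed at approximately two and four weeks after treatment.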"}, "[2]": {"test_system": "Quackgrass", "settings": "Table II, formulated immediately prior to treatment", "how_it_was_run": "(§2)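 After sowing in soil-filled pans and growing under greenhouse conditions, plants at two to three weeks were sprayed post-emergence with the test compound in a formulation containing approximately 0.4% emulsifier by weight. Observations of plant injury, relative to controls, followed at about two and four weeks.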"}, "[3]": {"test_system": "Rice", "settings": "Table III, 2 WAT", "how_it_was_run": "as §1"}, "[4]": {"test_system": "Large Crabgrass", "settings": "Table III; 2 WAT; 5.6 kg/h", "how_it_was_run": "as §1"}, "[5]": {"test_system": "Sugar Beet", "settings": "Table III; 2 WAT; 5.6 kg/h", "how_it_was_run": "as §1"}, "[6]": {"test_system": "Panicum Spp", "settings": "Table III; 2 WAT; 5.6 kg/h", "how_it_was_run": "as §1"}, "[7]": {"test_system": "Common Lambsquarters", "how_it_was_run": "as §1"}, "[8]": {"test_system": "Wild Buckwheat", "settings": "Table III, 2 WAT", "how_it_was_run": "as §1"}, "[9]": {"test_system": "Hemp Sesbania", "settings": "Table III, 2 WAT", "how_it_was_run": "as §1"}, "[10]": {"test_system": "Downy Brome", "how_it_was_run": "as §1"}, "[11]": {"test_system": "Morningglory", "how_it_was_run": "as §1"}, "[12]": {"test_system": "Yellow Nutsedge", "settings": "Table II, formulated immediately prior to treatment", "how_it_was_run": "as §2"}, "[13]": {"test_system": "Johnsongrass", "settings": "Table II, formulated immediately prior to treatment", "how_it_was_run": "as §1"}, "[14]": {"test_system": "Velvetleaf", "how_it_was_run": "as §1"}, "[15]": {"test_system": "Barnyardgrass", "how_it_was_run": "as §1"}, "[16]": {"test_system": "Cocklebur", "how_it_was_run": "as §1"}, "[17]": {"test_system": "Soybean", "settings": "Table III, 2 WAT", "how_it_was_run": "as §1"}, "[18]": {"test_system": "Pennsylvania Smartweed", "how_it_was_run": "as §1"}, "[19]": {"settings": "Table II, 2 WAT, 5.6 kg/h, formulated immediately prior to treatment"}, "[20]": {"settings": "Table II, 2 WAT, 11.2 kg/h, formulated immediately prior to treatment"}, "[21]": {"settings": "Table II, 4 WAT, 5.6 kg/h, formulated immediately prior to treatment"}, "[22]": {"settings": "Table II, 4 WAT, 11.2 kg/h, formulated immediately prior to treatment"}},
  "data": [
    {"smiles": "CC(C)(C)[Si](C)(C)OP(=O)(CNCC(=O)OCCc1ccccc1)O[Si](C)(C)C(C)(C)C", "note": "[Ex. 10, Glycine, N--((Bis[((1,1-Dimethylethyl)Dimethylsilyl)Oxy]Phosphinyl)Methyl)-,2-Phenylethyl Ester Hydrate]", "values": [
      {"measurement": "Plant Response Index (A)", "setting": "[1]; 2 WAT, 5.6 kg/h", "result": "0 (0-24% inhibition)"},
      {"measurement": "Plant Response Index (A)", "setting": "[1]; 2 WAT, 11.2 kg/h", "result": "2 (50-74% inhibition)"},
      {"measurement": "Plant Response Index (A)", "setting": "[1]; 4 WAT, 5.6 kg/h", "result": "0 (0-24% inhibition)"},
      {"measurement": "Plant Response Index (A)", "setting": "[1]; 4 WAT, 11.2 kg/h", "result": "2 (50-74% inhibition)"},
      {"measurement": "Plant Response Index (H)", "setting": "[2]; 2 WAT, 5.6 kg/h", "result": "0 (0-24% inhibition)"},
      {"measurement": "Plant Response Index (H)", "setting": "[2]; 2 WAT, 11.2 kg/h", "result": "1 (25-49% inhibition)"},
      {"measurement": "Plant Response Index (H)", "setting": "[2]; 4 WAT, 5.6 kg/h", "result": "0 (0-24% inhibition)"},
      {"measurement": "Plant Response Index (H)", "setting": "[2]; 4 WAT, 11.2 kg/h", "result": "1 (25-49% inhibition)"},
      {"measurement": "Plant Response Index (O)", "setting": "[3]; 1.1 kg/h", "result": "0 (0-24% inhibition)"},
      {"measurement": "Plant Response Index (O)", "setting": "[3]; 5.6 kg/h", "result": "0 (0-24% inhibition)"},
      {"measurement": "Plant Response Index (T)", "setting": "[4]", "result": "3 (75-99% inhibition)"},
      {"measurement": "Plant Response Index (M)", "setting": "[5]", "result": "3 (75-99% inhibition)"},
      {"measurement": "Plant Response Index (S)", "setting": "[6]", "result": "3 (75-99% inhibition)"},
      {"measurement": "Plant Response Index (E)", "setting": "[7]; [19]", "result": "2 (50-74% inhibition)"},
      {"measurement": "Plant Response Index (E)", "setting": "[7]; [20]", "result": "3 (75-99% inhibition)"},
      {"measurement": "Plant Response Index (E)", "setting": "[7]; [21]", "result": "3 (75-99% inhibition)"},
      {"measurement": "Plant Response Index (E)", "setting": "[7]; [22]", "result": "3 (75-99% inhibition)"},
      {"measurement": "Plant Response Index (E)", "setting": "[7]; Table III, 2 WAT, 1.1 kg/h", "result": "2 (50-74% inhibition)"},
      {"measurement": "Plant Response Index (E)", "setting": "[7]; Table III, 2 WAT, 5.6 kg/h", "result": "3 (75-99% inhibition)"},
      {"measurement": "Plant Response Index (Q)", "setting": "[8]; 1.1 kg/h", "result": "0 (0-24% inhibition)"},
      {"measurement": "Plant Response Index (Q)", "setting": "[8]; 5.6 kg/h", "result": "0 (0-24% inhibition)"},
      {"measurement": "Plant Response Index (R)", "setting": "[9]; 1.1 kg/h", "result": "0 (0-24% inhibition)"},
      {"measurement": "Plant Response Index (R)", "setting": "[9]; 5.6 kg/h", "result": "0 (0-24% inhibition)"},
      {"measurement": "Plant Response Index (J)", "setting": "[10]; [19]", "result": "0 (0-24% inhibition)"},
      {"measurement": "Plant Response Index (J)", "setting": "[10]; [20]", "result": "1 (25-49% inhibition)"},
      {"measurement": "Plant Response Index (J)", "setting": "[10]; [21]", "result": "0 (0-24% inhibition)"},
      {"measurement": "Plant Response Index (J)", "setting": "[10]; [22]", "result": "1 (25-49% inhibition)"},
      {"measurement": "Plant Response Index (J)", "setting": "[10]; Table III, 2 WAT, 1.1 kg/h", "result": "0 (0-24% inhibition)"},
      {"measurement": "Plant Response Index (J)", "setting": "[10]; Table III, 2 WAT, 5.6 kg/h", "result": "1 (25-49% inhibition)"},
      {"measurement": "Plant Response Index (D)", "setting": "[11]; [19]", "result": "1 (25-49% inhibition)"},
      {"measurement": "Plant Response Index (D)", "setting": "[11]; [20]", "result": "2 (50-74% inhibition)"},
      {"measurement": "Plant Response Index (D)", "setting": "[11]; [21]", "result": "0 (0-24% inhibition)"},
      {"measurement": "Plant Response Index (D)", "setting": "[11]; [22]", "result": "2 (50-74% inhibition)"},
      {"measurement": "Plant Response Index (D)", "setting": "[11]; Table III, 2 WAT, 5.6 kg/h", "result": "0 (0-24% inhibition)"},
      {"measurement": "Plant Response Index (G)", "setting": "[12]; 2 WAT, 5.6 kg/h", "result": "1 (25-49% inhibition)"},
      {"measurement": "Plant Response Index (G)", "setting": "[12]; 2 WAT, 11.2 kg/h", "result": "2 (50-74% inhibition)"},
      {"measurement": "Plant Response Index (G)", "setting": "[12]; 4 WAT, 5.6 kg/h", "result": "2 (50-74% inhibition)"},
      {"measurement": "Plant Response Index (G)", "setting": "[12]; 4 WAT, 11.2 kg/h", "result": "2 (50-74% inhibition)"},
      {"measurement": "Plant Response Index (I)", "setting": "[13]; 2 WAT, 5.6 kg/h", "result": "0 (0-24% inhibition)"},
      {"measurement": "Plant Response Index (I)", "setting": "[13]; 2 WAT, 11.2 kg/h", "result": "1 (25-49% inhibition)"},
      {"measurement": "Plant Response Index (I)", "setting": "[13]; 4 WAT, 5.6 kg/h", "result": "0 (0-24% inhibition)"},
      {"measurement": "Plant Response Index (I)", "setting": "[13]; 4 WAT, 11.2 kg/h", "result": "1 (25-49% inhibition)"},
      {"measurement": "Plant Response Index (C)", "setting": "[14]; [19]", "result": "0 (0-24% inhibition)"},
      {"measurement": "Plant Response Index (C)", "setting": "[14]; [20]", "result": "2 (50-74% inhibition)"},
      {"measurement": "Plant Response Index (C)", "setting": "[14]; [21]", "result": "0 (0-24% inhibition)"},
      {"measurement": "Plant Response Index (C)", "setting": "[14]; [22]", "result": "2 (50-74% inhibition)"},
      {"measurement": "Plant Response Index (C)", "setting": "[14]; Table III, 2 WAT, 5.6 kg/h", "result": "2 (50-74% inhibition)"},
      {"measurement": "Plant Response Index (K)", "setting": "[15]; [19]", "result": "1 (25-49% inhibition)"},
      {"measurement": "Plant Response Index (K)", "setting": "[15]; [20]", "result": "2 (50-74% inhibition)"},
      {"measurement": "Plant Response Index (K)", "setting": "[15]; [21]", "result": "2 (50-74% inhibition)"},
      {"measurement": "Plant Response Index (K)", "setting": "[15]; [22]", "result": "3 (75-99% inhibition)"},
      {"measurement": "Plant Response Index (K)", "setting": "[15]; Table III, 2 WAT, 5.6 kg/h", "result": "2 (50-74% inhibition)"},
      {"measurement": "Plant Response Index (B)", "setting": "[16]; [19]", "result": "1 (25-49% inhibition)"},
      {"measurement": "Plant Response Index (B)", "setting": "[16]; [20]", "result": "2 (50-74% inhibition)"},
      {"measurement": "Plant Response Index (B)", "setting": "[16]; [21]", "result": "0 (0-24% inhibition)"},
      {"measurement": "Plant Response Index (B)", "setting": "[16]; [22]", "result": "2 (50-74% inhibition)"},
      {"measurement": "Plant Response Index (B)", "setting": "[16]; Table III, 2 WAT, 1.1 kg/h", "result": "0 (0-24% inhibition)"},
      {"measurement": "Plant Response Index (B)", "setting": "[16]; Table III, 2 WAT, 5.6 kg/h", "result": "2 (50-74% inhibition)"},
      {"measurement": "Plant Response Index (L)", "setting": "[17]; 1.1 kg/h", "result": "0 (0-24% inhibition)"},
      {"measurement": "Plant Response Index (L)", "setting": "[17]; 5.6 kg/h", "result": "0 (0-24% inhibition)"},
      {"measurement": "Plant Response Index (F)", "setting": "[18]; [19]", "result": "1 (25-49% inhibition)"},
      {"measurement": "Plant Response Index (F)", "setting": "[18]; [20]", "result": "3 (75-99% inhibition)"},
      {"measurement": "Plant Response Index (F)", "setting": "[18]; [21]", "result": "1 (25-49% inhibition)"},
      {"measurement": "Plant Response Index (F)", "setting": "[18]; [22]", "result": "3 (75-99% inhibition)"},
      {"measurement": "Plant Response Index (F)", "setting": "[18]; Table III, 2 WAT, 1.1 kg/h", "result": "2 (50-74% inhibition)"},
      {"measurement": "Plant Response Index (F)", "setting": "[18]; Table III, 2 WAT, 5.6 kg/h", "result": "2 (50-74% inhibition)"}
    ]}
  ]
}
